{
  "source": "patent US9267111B2",
  "about": "“Methods of treating female subjects in need of in vitro fertilization” (The General Hospital Corporation, priority 2004, dated 2016)",
  "origin": "cited, not measured here",
  "tested_on": "germ line stem cells and spermatogonia in irradiated testicular tissue",
  "conditions": "versus untreated tissues",
  "data": [
    {"smiles": "CCCCCCCCCCCCC/C=C/[C@@H](O)[C@@H](N)COP(=O)(O)O", "note": "[S1P, Sphingosine-1-phosphate]", "values": [
      {"measurement": "numbers of primary spermatocytes and spermatogonia", "value": "higher than untreated tissues"}
    ]}
  ]
}
